{"source": "patent US11161862B2", "about": "“Phosphonium-ion tethered tetracycline drugs for treatment of cancer” (Oxford University Innovation Limited, priority 2017, dated 2021)", "note": "Counter-ions that a name gives are not always drawn."}
{"test_system": "MDA-231 cancer cells", "experiment": "Inhibition of proliferation assay: cell confluence (IncuCyte live cell imaging)", "assay_type": "cell-based", "conditions": "MDA-231 cells; concentration 10 μM; IncuCyte imaging every 3 h over 4-5 d; relative confluence normalised to time zero", "excerpt": "(§1) Inhibition of Proliferation Assay\n(§2) The confluence value is a surrogate for cell proliferation and growth. The value is expressed as a percent confluence, which represents the fraction of culture dish-surface that is occupied by cells. As the number of cells in the dish increases over time due to proliferation, so will their coverage of that surface increase. Expansion of the cell population on the cell culture-dish surface and confluence have mostly a linear relationship until the cells on the plate surface begin to reach saturation or maximum density.\n(§3) Confluence is determined based on image analysis. Image based software can identify objects in the image field base on changes to pixel density in a grey scale image. The software can then assign a mask to those pixels within the object. Objects can be ‘gated’ out based on size and shape. To determine cell confluence, images of cells are first masked as objects. The surface area of the image that is masked is measured and compared to the total surface area of the culture dish surface to obtain a percent confluence.\n(§4) MDA-231 cancer cells were obtained from ATCC. Cells were cultured in Dulbecco's Modified Eagle Medium (DMEM) supplemented with 10% Fetal Bovine Serum (FBS), 2 mM Glutamax, 1 mM Non Essential Amino Acid (NEAA) solution and 1 mM sodium pyruvate. […] Final DMSO concentrations were […]. Images were acquired with an IncuCyte Live Cell Imaging microscopy (Essen Bioscience) at every 3 h under cell culture conditions with 10× objective over 4-5 d. Cell confluence was calculated from one field of view per well using the IncuCyte in-built algorithm. Relative confluence values were obtained by normalising each value to the time zero value in each sample.", "units": {"% Confluence": "%"}}
{"smiles": "CC(C)[P+](CCCCCCCCCCCC(=O)Nc1ccc2c(c1O)C(=O)C1=C(O)[C@]3(O)C(=O)C(C(N)=O)=C(O)[C@@H](N(C)C)[C@@H]3[C@@H](O)[C@@H]1[C@H]2C)(c1ccccc1)c1ccccc1", "note": "[Example 13, (11-{[(5R,5aR,6S,6aR,7S,10aS)-9-carbamoyl-7-(dimethylamino)-1,6,8,10a,11-pentahydroxy-5-methyl-10,12-dioxo-5,5a,6,6a,7,10,10a,12-octahydrotetracen-2-yl]carbamoyl}undecyl)diphenyl(propan-2-yl)phosphonium chloride]", "% Confluence": 35.1}
{"smiles": "C[C@H]1c2ccc(NC(=O)CCCCCCCCCCC[P+](C)(c3ccccc3)c3ccccc3)c(O)c2C(=O)C2=C(O)[C@]3(O)C(=O)C(C(N)=O)=C(O)[C@@H](N(C)C)[C@@H]3[C@@H](O)[C@@H]21.[Cl-]", "note": "[Example 5, (11-{[(5R,5aR,6S,6aR,7S,10aS)-9-carbamoyl-7-(dimethylamino)-1,6,8,10a,11-pentahydroxy-5-methyl-10,12-dioxo-5,5a,6,6a,7,10,10a,12-octahydrotetracen-2-yl]carbamoyl}undecyl)(methyl)diphenylphosphonium chloride]", "% Confluence": 24.9}
{"smiles": "C[C@H]1c2ccc(NC(=O)CCCCCCC[P+](C)(C)C)c(O)c2C(=O)C2=C(O)[C@]3(O)C(=O)C(C(N)=O)=C(O)[C@@H](N(C)C)[C@@H]3[C@@H](O)[C@@H]21.[Cl-]", "note": "[Example 4, (7-{[(5R,5aR,6S,6aR,7S,10aS)-9-carbamoyl-7-(dimethylamino)-1,6,8,10a,11-pentahydroxy-5-methyl-10,12-dioxo-5,5a,6,6a,7,10,10a,12-octahydrotetracen-2-yl]carbamoyl}heptyl)trimethylphosphonium chloride]", "% Confluence": 111.8}
{"smiles": "C[C@H]1c2ccc(NC(=O)CCCCCCCCCCC[P+](C)(C)C)c(O)c2C(=O)C2=C(O)[C@]3(O)C(=O)C(C(N)=O)=C(O)[C@@H](N(C)C)[C@@H]3[C@@H](O)[C@@H]21.[Cl-]", "note": "[Example 6, (11-{[(5R,5aR,6S,6aR,7S,10aS)-9-carbamoyl-7-(dimethylamino)-1,6,8,10a,11-pentahydroxy-5-methyl-10,12-dioxo-5,5a,6,6a,7,10,10a,12-octahydrotetracen-2-yl]carbamoyl}undecyl)trimethylphosphonium chloride]", "% Confluence": 57.7}
{"smiles": "C[C@H]1c2ccc(NC(=O)CCCCCCC[P+](C)(C)c3ccccc3)c(O)c2C(=O)C2=C(O)[C@]3(O)C(=O)C(C(N)=O)=C(O)[C@@H](N(C)C)[C@@H]3[C@@H](O)[C@@H]21.[Cl-]", "note": "[Example 3, (7-{[(5R,5aR,6S,6aR,7S,10aS)-9-carbamoyl-7-(dimethylamino)-1,6,8,10a,11-pentahydroxy-5-methyl-10,12-dioxo-5,5a,6,6a,7,10,10a,12-octahydrotetracen-2-yl]carbamoyl}heptyl)dimethylphenylphosphonium chloride]", "% Confluence": 62.5}
{"smiles": "C[C@H]1c2ccc(NC(=O)CCCCCCCCC[P+](c3ccccc3)(c3ccccc3)c3cnn(C)c3)c(O)c2C(=O)C2=C(O)[C@]3(O)C(=O)C(C(N)=O)=C(O)[C@@H](N(C)C)[C@@H]3[C@@H](O)[C@@H]21.[Cl-]", "note": "[Example 11, (9-{[(5R,5aR,6S,6aR,7S,10aS)-9-carbamoyl-7-(dimethylamino)-1,6,8,10a,11-pentahydroxy-5-methyl-10,12-dioxo-5,5a,6,6a,7,10,10a,12-octahydrotetracen-2-yl]carbamoyl}nonyl)(1-methyl-1H-pyrazol-4-yl)diphenylphosphonium chloride]", "% Confluence": 70.1}
{"smiles": "C[C@H]1c2ccc(NC(=O)CCCCCCCC[P+](c3ccccc3)(c3ccccc3)c3cnn(C)c3)c(O)c2C(=O)C2=C(O)[C@]3(O)C(=O)C(C(N)=O)=C(O)[C@@H](N(C)C)[C@@H]3[C@@H](O)[C@@H]21.[Cl-]", "note": "[Example 9, (8-{[(5R,5aR,6S,6aR,7S,10aS)-9-carbamoyl-7-(dimethylamino)-1,6,8,10a,11-pentahydroxy-5-methyl-10,12-dioxo-5,5a,6,6a,7,10,10a,12-octahydrotetracen-2-yl]carbamoyl}octyl)(1-methyl-1H-pyrazol-4-yl)diphenylphosphonium chloride]", "% Confluence": 55.5}
{"smiles": "Cc1cccc([P+](CCCCCCCCCCCC(=O)Nc2ccc3c(c2O)C(=O)C2=C(O)[C@]4(O)C(=O)C(C(N)=O)=C(O)[C@@H](N(C)C)[C@@H]4[C@@H](O)[C@@H]2[C@H]3C)(c2cccc(C)c2)c2cccc(C)c2)c1.[Cl-]", "note": "[Example 7, (11-{[(5R,5aR,6S,6aR,7S,10aS)-9-carbamoyl-7-(dimethylamino)-1,6,8,10a,11-pentahydroxy-5-methyl-10,12-dioxo-5,5a,6,6a,7,10,10a,12-octahydrotetracen-2-yl]carbamoyl}undecyl)tris(3-methylphenyl)phosphonium chloride]", "% Confluence": 29.4}
{"smiles": "C[C@H]1c2ccc(NC(=O)CCCCCCCCCCC[P+](c3ccccc3)(c3ccccc3)c3cnn(C)c3)c(O)c2C(=O)C2=C(O)[C@]3(O)C(=O)C(C(N)=O)=C(O)[C@@H](N(C)C)[C@@H]3[C@@H](O)[C@@H]21.[Cl-]", "note": "[Example 10, (11-{[(5R,5aR,6S,6aR,7S,10aS)-9-carbamoyl-7-(dimethylamino)-1,6,8,10a,11-pentahydroxy-5-methyl-10,12-dioxo-5,5a,6,6a,7,10,10a,12-octahydrotetracen-2-yl]carbamoyl}undecyl)(1-methyl-1H-pyrazol-4-yl)diphenylphosphonium chloride]", "% Confluence": 12.4}
{"smiles": "COc1ccc([P+](CCCCCCCCCCCC(=O)Nc2ccc3c(c2O)C(=O)C2=C(O)[C@]4(O)C(=O)C(C(N)=O)=C(O)[C@@H](N(C)C)[C@@H]4[C@@H](O)[C@@H]2[C@H]3C)(c2ccc(OC)cc2)c2ccc(OC)cc2)cc1", "note": "[Example 1, (11-{[(5R,5aR,6S,6aR,7S,10aS)-9-carbamoyl-7-(dimethylamino)-1,6,8,10a,11-pentahydroxy-5-methyl-10,12-dioxo-5,5a,6,6a,7,10,10a,12-octahydrotetracen-2-yl]carbamoyl}undecyl)tris(4-methoxyphenyl)phosphonium formate]", "% Confluence": 17}
{"smiles": "C[C@H]1c2ccc(NC(=O)CCCCCCCCCC[P+](c3ccccc3)(c3ccccc3)c3cnn(C)c3)c(O)c2C(=O)C2=C(O)[C@]3(O)C(=O)C(C(N)=O)=C(O)[C@@H](N(C)C)[C@@H]3[C@@H](O)[C@@H]21.[Cl-]", "note": "[Example 12, (10-{[(5R,5aR,6S,6aR,7S,10aS)-9-carbamoyl-7-(dimethylamino)-1,6,8,10a,11-pentahydroxy-5-methyl-10,12-dioxo-5,5a,6,6a,7,10,10a,12-octahydrotetracen-2-yl]carbamoyl}decyl)(1-methyl-1H-pyrazol-4-yl)diphenylphosphonium chloride]", "% Confluence": 45.4}
{"smiles": "C[C@H]1c2ccc(NC(=O)CCCCCCC[P+](C)(c3ccccc3)c3ccccc3)c(O)c2C(=O)C2=C(O)[C@]3(O)C(=O)C(C(N)=O)=C(O)[C@@H](N(C)C)[C@@H]3[C@@H](O)[C@@H]21.[Cl-]", "note": "[Example 2, (7-{[(5R,5aR,6S,6aR,7S,10aS)-9-carbamoyl-7-(dimethylamino)-1,6,8,10a,11-pentahydroxy-5-methyl-10,12-dioxo-5,5a,6,6a,7,10,10a,12-octahydrotetracen-2-yl]carbamoyl}heptyl)(methyl)diphenylphosphonium chloride]", "% Confluence": 91.7}
{"smiles": "C[C@H]1c2ccc(NC(=O)CCCCCCC[P+](c3ccccc3)(c3ccccc3)c3cnn(C)c3)c(O)c2C(=O)C2=C(O)[C@]3(O)C(=O)C(C(N)=O)=C(O)[C@@H](N(C)C)[C@@H]3[C@@H](O)[C@@H]21.[Cl-]", "note": "[Example 8, (7-{[(5R,5aR,6S,6aR,7S,10aS)-9-carbamoyl-7-(dimethylamino)-1,6,8,10a,11-pentahydroxy-5-methyl-10,12-dioxo-5,5a,6,6a,7,10,10a,12-octahydrotetracen-2-yl]carbamoyl}heptyl)(1-methyl-1H-pyrazol-4-yl)diphenylphosphonium chloride]", "% Confluence": 45.6}
{"smiles": "C[C@H]1c2cccc(O)c2C(=O)C2=C(O)[C@]3(O)C(=O)C(C(N)=O)=C(O)[C@@H](N(C)C)[C@@H]3[C@@H](O)[C@@H]21", "note": "[Doxycycline, reference compound]", "% Confluence": 98.7}
{"test_system": "MDA-231 cancer cells", "experiment": "Inhibition of proliferation assay: cell confluence (IncuCyte live cell imaging)", "assay_type": "cell-based", "conditions": "MDA-231 cells; concentration 50 μM; IncuCyte imaging every 3 h over 4-5 d; relative confluence normalised to time zero", "excerpt": "as §1, §2, §3, §4", "units": {"% Confluence": "%"}}
{"smiles": "C[C@H]1c2cccc(O)c2C(=O)C2=C(O)[C@]3(O)C(=O)C(C(N)=O)=C(O)[C@@H](N(C)C)[C@@H]3[C@@H](O)[C@@H]21", "note": "[Doxycycline, reference compound]", "% Confluence": 91}
